In patent US20050020643A1, “Pyridinyl amides and compositions thereof for use as fungicides” (priority 2002, published 2005):

Experiments:
Type in all cases: in vivo
[1] = system: Erysiphe graminis f. sp. tritici; assay: Test A: preventive control of wheat powdery mildew on wheat seedlings; set-up: concentration or dose not given beside the values; conditions: sprayed day before inoculation, rated after 7 days, rate not given
Puccinia recondita = assay: Test B: preventive control of wheat leaf rust on wheat seedlings; set-up: concentration or dose not given beside the values; conditions: sprayed day before inoculation, rate not given
Pyricularia oryzae = conditions: rice seedlings, sprayed day before inoculation; rate not given
Phytophthora infestans [2] = conditions: tomato (or potato) seedlings, sprayed day before inoculation; rate not given
Plasmopara viticola [3] = assay: Test E: preventive control of grape downy mildew on grape seedlings; conditions: sprayed day before inoculation, rate not given
Phytophthora infestans [4] = assay: whole plant or invertebrate; conditions: for pest or weed control at 100 g/ha: Phytophthora infestans, in Solanum tuberosum, 120 h, read-out: Test F disease control rating; for Test F disease control rating: 100 g/ha on potato seedlings, sprayed day after inoculation
Plasmopara viticola [5] = assay: Test G: curative control of grape downy mildew on grape seedlings (sprayed after inoculation); conditions: sprayed day after inoculation, rate not given

SMILES	Test A disease control rating [1] [%]	Test B disease control rating (Puccinia recondita) [%]	Test C disease control rating (Pyricularia oryzae) [%]	Test D disease control rating (Phytophthora infestans [2]) [%]	Test E disease control rating (Plasmopara viticola [3]) [%]	pest or weed control at 100 g/ha (Phytophthora infestans [4]) [%]	Test G disease control rating (Plasmopara viticola [5]) [%]	Test F disease control rating (Phytophthora infestans [4]) [%]
CC(NC(=O)c1c(Cl)ccnc1Cl)c1ncc(Cl)cc1Cl (racemic) [Compound 1, 2,4-Dichloro-N-[1-(3,5-dichloro-2-pyridinyl)ethyl]-3-pyridinecarboxamide]	0	38	0	100	99	87	100	
CC(NC(=O)c1c(Cl)ccnc1Cl)c1ncc(Br)cc1Cl (racemic) [Compound 2, N-[1-(5-bromo-3-chloro-2-pyridinyl)ethyl]-2,4-dichloro-3-pyridinecarboxamide]	0	19	0	100	100	93	100	
CC(NC(=O)c1c(Cl)ccnc1Cl)c1ncc(I)cc1Cl (centres unmarked) [Compound 3, N-[1-(3-chloro-5-iodo-2-pyridinyl)ethyl]-2,4-dichloro-3-pyridinecarboxamide]	0	19		100	95	88	100	
O=C(NCc1ncc(Cl)cc1Cl)c1c(Cl)ccnc1Cl [Compound 4, 2,4-Dichloro-N-[(3,5-dichloro-2-pyridinyl)methyl]-3-pyridinecarboxamide]	0	9		100	70	100	100	
CC(NC(=O)c1c(Cl)ccnc1Cl)c1ncc(F)cc1Cl (centres unmarked) [Compound 5]	0	0		100	70		99	100
O=C(NCc1ncc(Cl)cc1Br)c1c(Cl)ccnc1Cl [Compound 6]	0	0		100	70		99	100
CC(NC(=O)c1c(Cl)ccnc1Cl)c1ncc(Br)cc1Br (centres unmarked) [Compound 7]	0	45		100	100		100	100
O=C(NCc1ncc(Cl)cc1I)c1c(Cl)ccnc1Cl [Compound 8]	0	0		100	100		36	100
O=C(NCc1ncc(Br)cc1Cl)c1c(Cl)ccnc1Cl [Compound 9, N-[(5-bromo-3-chloro-2-pyridinyl)methyl]-2,4-dichloro-3-pyridinecarboxamide]	0	9		100	88	99	99	
Cc1cnc(C(C)NC(=O)c2c(Cl)ccnc2Cl)c(C)c1 (centres unmarked) [Compound 10]	0	0		99	57		0	0
CC(NC(=O)c1c(Cl)ccnc1Cl)c1ncc(OC(F)F)cc1Cl (centres unmarked) [Compound 11]	0	0		100	100		100	93
O=C(NCc1ncc(I)cc1Cl)c1c(Cl)ccnc1Cl [Compound 12, N-[(3-chloro-5-iodo-2-pyridinyl)methyl]-2,4-dichloro-3-pyridinecarboxamide]	0	0		100	59	98	63	
Cc1cc(Cl)c(C(=O)NC(C)c2ncc(Br)cc2Cl)c(Cl)n1 (centres unmarked) [Compound 13]	0	68		100	100		100	100
Cc1cc(Cl)c(C(=O)NCc2ncc(Br)cc2Cl)c(Cl)n1 [Compound 14, N-[(5-bromo-3-chloro-2-pyridinyl)methyl]-2,4-dichloro-6-methyl-3-pyridinecarboxamide]	0	41		100	100	98	100	
Cc1cc(Cl)c(C(=O)NC(C)c2ncc(I)cc2Cl)c(Cl)n1 (centres unmarked) [Compound 15, N-[1-(3-chloro-5-iodo-2-pyridinyl)ethyl]-2,4-dichloro-6-methyl-3-pyridinecarboxamide]	0	0		100	100	70	100	
Cc1cc(Cl)c(C(=O)NCc2ncc(I)cc2Cl)c(Cl)n1 [Compound 16, N-[(3-chloro-5-iodo-2-pyridinyl)methyl]-2,4-dichloro-6-methyl-3-pyridinecarboxamide]	0	32		100	100	83	95	
CC(NC(=O)c1c(Br)ccnc1F)c1ncc(Cl)cc1Cl (centres unmarked) [Compound 38]	0			100	100		100	100
CC(NC(=O)c1c(Br)ccnc1F)c1ncc(Br)cc1Br (centres unmarked) [Compound 39]	0			100	100		100	100
Cc1cc(Cl)c(C(=O)NCc2ncc(Cl)cc2Br)c(Cl)n1 [Compound 40]	0			100	100		99	95
Cc1cc(Cl)c(C(=O)NC(C)c2ncc(Cl)cc2Br)c(Cl)n1 (centres unmarked) [Compound 41]	0			100	100		100	97
Cc1cc(Cl)c(C(=O)NCc2ncc(I)cc2Br)c(Cl)n1 [Compound 42]	0			100	100		100	93
Cc1cc(Cl)c(C(=O)NC(C)c2ncc(I)cc2Br)c(Cl)n1 (centres unmarked) [Compound 43]	0			100	100		100	90
